This note sets out measurements from patent US20090118336A1, “PYRAZOLE DERIVATIVES AND THEIR USE AS PI3K INHIBITORS” (priority 2006, published 2009).

What is called IC50 is the point on the concentration scale where inhibition reaches its midpoint.

Assay [1] deals with T1, p110α Type Ia human PI3K (Homo sapiens, UniProt P42336).
T1 construct: full length DNA of each of the p110α, p110β and p110δ Type Ia human PI3K p110 isoforms; 6-His; made in house
Description: In vitro PI3K enzyme assay (AlphaScreen), Test (a). In kind it is biochemical. Conditions: recombinant enzyme, PI(4,5)P2 substrate, ATP 4 μM, read-out: IC50 versus p110α Type Ia human PI3K. An excerpt: (a) In Vitro PI3K Enzyme Assay
The assay used AlphaScreen technology (Gray et al., Analytical Biochemistry, 2003, 313: 234-245) to determine the ability of test compounds to inhibit phosphorylation by recombinant Type I PI3K enzymes of the lipid PI(4,5)P2.
DNA fragments encoding human PI3K catalytic and regulatory subunits were isolated from cDNA libraries using standard molecular biology and PCR cloning techniques. The selected DNA fragments were used to generate baculovirus expression vectors. In particular, full length DNA of each of the p110α, p110β and p110δ Type Ia human PI3K p110 isoforms (EMBL Accession Nos. HSU79143, S67334, Y10055 for p110α, p110β and p110δ respectively) were sub-cloned into a pDEST10 vector (Invitrogen Limited, Fountain Drive, Paisley, UK). The vector is a Gateway-adapted version of Fastbac1 containing a 6-His epitope tag. […]
Biotinylated-DiC8-PI(3,4,5)P3 ([…]; Cell Signals Inc., Catalogue No. 107), recombinant purified GST-Grp1 PH protein (2.5 nM) and AlphaScreen Anti-GST donor and acceptor beads (100 ng; Packard Bioscience Limited, Station Road, Pangbourne, Berkshire, UK, Catalogue No. 6760603M) were added and the assay plates were left for about 5 to 20 hours at room temperature in the dark. The resultant signals arising from laser light excitation at 680 nm were read using a Packard AlphaQuest instrument. […]

Assay [2] concerns the target mTOR PI kinase-related kinase (Homo sapiens, UniProt P42345). The experiment in a line: In vitro mTOR PI kinase-related kinase assay (AlphaScreen), Test (b). It counts as biochemical. As to conditions: recombinant mTOR (1362-2549), ATP 20 μM, read-out: IC50 versus mTOR PI kinase-related kinase. The method, then: (b) In Vitro mTOR PI Kinase-Related Kinase Assay
The assay used AlphaScreen technology (Gray et al., Analytical Biochemistry, 2003, 313: 234-245) to determine the ability of test compounds to inhibit phosphorylation by recombinant mTOR. […]
Each reaction was stopped by the addition of 10 μl of a mixture of EDTA (50 mM), bovine serum albumin (BSA; 0.5 mg/ml) and Tris-HCl pH7.4 buffer (50 mM) containing p70 S6 Kinase (T389) 1A5 Monoclonal Antibody (Cell Signalling Technology, Catalogue No. 9206B) and AlphaScreen Streptavidin donor and Protein A acceptor beads (200 ng; Perkin Elmer, Catalogue No. 6760002B and 6760137R respectively) were added and the assay plates were left for about 20 hours at room temperature in the dark. The resultant signals arising from laser light excitation at 680 nm were read using a Packard Envision instrument.
Phosphorylated biotinylated peptide is formed in situ as a result of mTOR mediated phosphorylation. […] Upon laser light excitation at 680 nm, the donor bead: acceptor bead complex produces a signal that can be measured. […]
mTOR enzyme inhibition for a given test compound was expressed as an IC50 value.

Chain of mTOR PI kinase-related kinase (P42345 1362-2549): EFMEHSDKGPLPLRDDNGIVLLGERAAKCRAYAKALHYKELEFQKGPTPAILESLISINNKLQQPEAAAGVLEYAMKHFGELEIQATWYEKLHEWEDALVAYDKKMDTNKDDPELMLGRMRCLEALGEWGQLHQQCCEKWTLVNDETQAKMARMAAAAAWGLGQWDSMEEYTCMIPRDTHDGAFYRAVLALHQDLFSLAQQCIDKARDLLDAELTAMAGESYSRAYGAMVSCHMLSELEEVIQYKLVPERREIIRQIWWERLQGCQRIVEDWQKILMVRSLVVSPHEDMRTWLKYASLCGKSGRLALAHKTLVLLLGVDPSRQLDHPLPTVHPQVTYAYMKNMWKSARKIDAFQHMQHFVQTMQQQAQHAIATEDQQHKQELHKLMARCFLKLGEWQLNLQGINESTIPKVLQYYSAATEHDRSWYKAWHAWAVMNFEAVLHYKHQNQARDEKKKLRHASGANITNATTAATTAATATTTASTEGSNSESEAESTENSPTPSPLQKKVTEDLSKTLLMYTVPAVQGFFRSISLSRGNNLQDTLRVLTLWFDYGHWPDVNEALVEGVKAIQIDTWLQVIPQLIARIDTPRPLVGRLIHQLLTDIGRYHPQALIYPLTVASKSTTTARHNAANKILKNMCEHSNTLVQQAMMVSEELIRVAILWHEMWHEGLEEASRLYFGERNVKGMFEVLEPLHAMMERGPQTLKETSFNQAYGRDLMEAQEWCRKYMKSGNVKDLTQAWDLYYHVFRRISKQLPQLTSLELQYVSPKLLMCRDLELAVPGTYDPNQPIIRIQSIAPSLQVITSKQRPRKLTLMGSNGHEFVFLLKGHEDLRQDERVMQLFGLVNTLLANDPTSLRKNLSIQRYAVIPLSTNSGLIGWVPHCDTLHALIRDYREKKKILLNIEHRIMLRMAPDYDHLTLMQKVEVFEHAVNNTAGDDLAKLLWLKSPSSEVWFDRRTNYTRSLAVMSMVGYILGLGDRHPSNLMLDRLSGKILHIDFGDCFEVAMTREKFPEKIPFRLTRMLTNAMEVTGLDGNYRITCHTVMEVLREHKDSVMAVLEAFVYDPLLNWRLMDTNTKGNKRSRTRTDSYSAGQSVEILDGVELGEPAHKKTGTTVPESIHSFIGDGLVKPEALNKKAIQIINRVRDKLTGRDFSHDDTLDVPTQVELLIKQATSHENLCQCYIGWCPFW
T1 sequence (P42336 whole entry, canonical isoform): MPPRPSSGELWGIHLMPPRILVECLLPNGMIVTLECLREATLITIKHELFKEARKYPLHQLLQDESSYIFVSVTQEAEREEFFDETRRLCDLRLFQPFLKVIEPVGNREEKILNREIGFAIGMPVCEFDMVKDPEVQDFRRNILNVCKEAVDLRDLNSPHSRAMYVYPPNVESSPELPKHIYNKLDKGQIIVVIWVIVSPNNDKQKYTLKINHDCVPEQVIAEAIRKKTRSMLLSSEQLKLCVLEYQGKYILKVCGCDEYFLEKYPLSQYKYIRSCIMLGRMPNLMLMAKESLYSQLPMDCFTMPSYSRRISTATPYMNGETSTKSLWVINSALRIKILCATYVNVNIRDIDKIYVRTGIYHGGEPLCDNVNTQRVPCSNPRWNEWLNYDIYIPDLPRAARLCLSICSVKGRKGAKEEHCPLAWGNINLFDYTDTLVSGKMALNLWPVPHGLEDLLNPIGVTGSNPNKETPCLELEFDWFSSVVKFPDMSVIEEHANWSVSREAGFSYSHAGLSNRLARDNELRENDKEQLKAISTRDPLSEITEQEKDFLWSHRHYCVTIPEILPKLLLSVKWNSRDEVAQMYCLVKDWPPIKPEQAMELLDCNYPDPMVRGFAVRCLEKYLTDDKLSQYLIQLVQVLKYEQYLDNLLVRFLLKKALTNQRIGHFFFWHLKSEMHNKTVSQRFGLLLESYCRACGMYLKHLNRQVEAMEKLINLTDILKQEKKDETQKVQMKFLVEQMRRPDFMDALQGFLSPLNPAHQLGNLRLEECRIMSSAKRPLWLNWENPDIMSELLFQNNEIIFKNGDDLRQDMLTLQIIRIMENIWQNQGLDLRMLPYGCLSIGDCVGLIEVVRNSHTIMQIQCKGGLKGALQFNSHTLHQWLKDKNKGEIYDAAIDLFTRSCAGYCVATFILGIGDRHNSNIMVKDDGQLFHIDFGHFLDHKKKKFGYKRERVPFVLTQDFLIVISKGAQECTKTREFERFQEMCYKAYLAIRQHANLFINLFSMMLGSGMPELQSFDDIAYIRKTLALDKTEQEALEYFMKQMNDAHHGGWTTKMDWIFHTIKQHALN
T1 sequence (P27986 whole entry partner, canonical isoform): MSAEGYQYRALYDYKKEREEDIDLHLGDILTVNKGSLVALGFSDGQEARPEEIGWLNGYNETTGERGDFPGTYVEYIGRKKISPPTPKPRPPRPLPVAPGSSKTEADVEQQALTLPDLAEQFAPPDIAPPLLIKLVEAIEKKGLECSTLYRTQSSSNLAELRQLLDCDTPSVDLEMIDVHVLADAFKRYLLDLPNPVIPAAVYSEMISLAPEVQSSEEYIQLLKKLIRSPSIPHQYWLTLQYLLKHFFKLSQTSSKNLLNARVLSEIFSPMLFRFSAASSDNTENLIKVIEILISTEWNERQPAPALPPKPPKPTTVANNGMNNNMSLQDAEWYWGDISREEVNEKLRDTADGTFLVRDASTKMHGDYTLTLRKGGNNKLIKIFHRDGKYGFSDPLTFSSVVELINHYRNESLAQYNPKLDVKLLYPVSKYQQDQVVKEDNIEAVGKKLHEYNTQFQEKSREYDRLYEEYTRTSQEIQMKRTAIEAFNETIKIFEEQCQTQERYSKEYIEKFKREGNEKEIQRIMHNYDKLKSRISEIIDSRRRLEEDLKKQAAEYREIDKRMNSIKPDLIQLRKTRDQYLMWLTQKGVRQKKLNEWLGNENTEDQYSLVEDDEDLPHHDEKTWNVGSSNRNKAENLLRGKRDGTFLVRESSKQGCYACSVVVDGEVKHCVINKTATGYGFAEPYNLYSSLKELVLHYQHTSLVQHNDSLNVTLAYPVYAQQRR

Consider `CC(=O)Nc1cc(-c2cncc(NS(C)(=O)=O)c2)n(C)n1` [Example 1, N-[5-(5-methanesulphonamidopyridin-3-yl)-1-methyl-1H-pyrazol-3-yl]acetamide], for which the IC50 in assay [1] is roughly 5 µM; in assay [2], roughly 40 µM.

As to `CC(=O)Nc1cc(-c2cncc(NS(=O)(=O)c3c(C)nn(C)c3Cl)c2)n(C)n1` [Example 3, N-{5-[5-(5-chloro-1,3-dimethyl-1H-pyrazol-4-ylsulphonamido)pyridin-3-yl]-1-methyl-1H-pyrazol-3-yl}acetamide], the concentration for half-maximal inhibition (IC50) in assay [1] is roughly 0.5 µM; in assay [2], roughly 2 µM.
